pIC50: −log10 of the molar value.
What was measured:
[1] = target: T1, human MAGL (Homo sapiens, UniProt Q99685); test: MAGL inhibition potency (IC50) with 4NPA substrate, Example 20, methods of Table C; format: biochemical; settings: Method 12: Enzyme Conc 15, Reaction Biology (15 nM); read-out: MAGL Potency (Detection Method)
T1 construct: recombinant MAGL enzyme (aa 2-303 RBC, internal preparation)
T1 sequence (Q99685 2-303): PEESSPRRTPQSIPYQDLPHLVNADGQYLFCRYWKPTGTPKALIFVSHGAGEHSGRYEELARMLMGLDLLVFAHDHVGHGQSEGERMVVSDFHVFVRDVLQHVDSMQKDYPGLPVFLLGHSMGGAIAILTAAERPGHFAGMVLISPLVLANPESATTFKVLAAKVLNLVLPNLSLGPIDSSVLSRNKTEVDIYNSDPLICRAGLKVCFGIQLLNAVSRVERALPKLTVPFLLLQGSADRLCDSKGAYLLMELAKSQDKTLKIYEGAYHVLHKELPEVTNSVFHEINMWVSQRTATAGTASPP

[2] = target: T2, MAGL enzyme (Homo sapiens, UniProt Q99685); test: MAGL reversible inhibition assay (washout), Example 22; format: biochemical; design: % MAGL activity returning after washout: concentration or dose not given beside the values
T2 sequence (Q99685 1-303): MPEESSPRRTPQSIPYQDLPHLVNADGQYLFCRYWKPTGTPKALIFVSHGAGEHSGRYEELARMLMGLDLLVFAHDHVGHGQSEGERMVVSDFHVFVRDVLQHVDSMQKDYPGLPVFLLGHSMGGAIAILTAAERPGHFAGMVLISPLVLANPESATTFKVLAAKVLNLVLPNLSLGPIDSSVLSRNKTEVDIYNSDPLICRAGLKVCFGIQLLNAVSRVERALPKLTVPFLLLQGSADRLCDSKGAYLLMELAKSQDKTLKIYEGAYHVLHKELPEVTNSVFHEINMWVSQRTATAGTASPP

**Q.** With `Cc1cn(C2CC3(C2)CN(C(=O)c2cc(O)ccc2F)C3)nc1-c1cc(F)ccc1Cl` (single isomer, unassigned) [Compound 520, {6-[3-(2-chloro-5-fluorophenyl)-4-methyl-1-pyrazolyl]-2-aza-2-spiro[3.3]heptyl}(2-fluoro-5-hydroxyphenyl)methanone] as the compound, how does the pIC50 [1] read?
**A.** Its pIC50 is over 7.30.

**Q.** And the “degree to which MAGL enzymatic activity returned following washout of test compounds” value ([2]; pre-washout compound concentration 1 μM)?
**A.** Its value is 100.

**Q.** And the “% MAGL activity returning after washout” value ([2]; relative to control (no inhibitor before washout), immediately following 30 minute washout)?
**A.** The value was over 50%.
